Data: PubChem BioAssay (NCI)
Several values for one entry are separate records, joined by “and”; a condition that tells them apart may be missing. Identical values can stand only once.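 1) Cells in 96-well plates. 2) Compound, 48 h, 5 concentrations. 3) Linear interpolation between surrounding doses. 4) Unreached endpoint = highest concentration. GI50 is the concentration that inhibits growth by half. TGI denotes the concentration required for complete inhibition of growth.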 Activity calls are given as the source filed them. No stated cut-off is given here; in the data, active means GI50 below about 0.43 µM; inactive means the rest.

How the values were obtained:
Test in all cases: NCI tumour cell line growth inhibition, 48 h
TK-10 renal = test system: TK-10 renal
HS 578T breast = test system: HS 578T breast
UO-31 renal = test system: UO-31 renal
XF 498 CNS = test system: XF 498 CNS
MOLT-4 leukemia = test system: MOLT-4 leukemia
A498 renal = test system: A498 renal
HCT-116 colon = test system: HCT-116 colon
SN12C renal = test system: SN12C renal
NCI-H522 lung = test system: NCI-H522 lung
OVCAR-3 ovarian = test system: OVCAR-3 ovarian
OVCAR-8 ovarian = test system: OVCAR-8 ovarian
NCI-H460 lung = test system: NCI-H460 lung
MDA-MB-435 = test system: MDA-MB-435
RXF-631 renal = test system: RXF-631 renal
BT-549 breast = test system: BT-549 breast
RPMI-8226 leukemia = test system: RPMI-8226 leukemia
DU-145 prostate = test system: DU-145 prostate
SR leukemia = test system: SR leukemia
MALME-3M melanoma = test system: MALME-3M melanoma
RXF 393 renal = test system: RXF 393 renal
SK-MEL-2 melanoma = test system: SK-MEL-2 melanoma
CAKI-1 renal = test system: CAKI-1 renal
HOP-92 NSCLC = test system: HOP-92 NSCLC
786-0 renal = test system: 786-0 renal
SK-OV-3 ovarian = test system: SK-OV-3 ovarian
HCT-15 colon = test system: HCT-15 colon
SK-MEL-28 melanoma = test system: SK-MEL-28 melanoma
SNB-19 CNS = test system: SNB-19 CNS
M14 melanoma = test system: M14 melanoma
SF-268 CNS = test system: SF-268 CNS
A549 NSCLC = test system: A549 NSCLC
DLD-1 colon = test system: DLD-1 colon
SF-295 CNS = test system: SF-295 CNS
COLO 205 colon = test system: COLO 205 colon
MDA-MB-231 breast = test system: MDA-MB-231 breast
SNB-78 CNS = test system: SNB-78 CNS
SNB-75 CNS = test system: SNB-75 CNS
ACHN renal = test system: ACHN renal
HOP-62 NSCLC = test system: HOP-62 NSCLC
LXFL 529 NSCLC = test system: LXFL 529 NSCLC
UACC-62 melanoma = test system: UACC-62 melanoma
U251 CNS = test system: U251 CNS
EKVX NSCLC = test system: EKVX NSCLC
UACC-257 melanoma = test system: UACC-257 melanoma
DMS 273 small cell lung = test system: DMS 273 small cell lung
LOX IMVI melanoma = test system: LOX IMVI melanoma
K-562 leukemia = test system: K-562 leukemia
PC-3 prostate = test system: PC-3 prostate
MCF7 breast = test system: MCF7 breast
KM20L2 colon = test system: KM20L2 colon
IGROV1 ovarian = test system: IGROV1 ovarian
CCRF-CEM leukemia = test system: CCRF-CEM leukemia
NCI-H23 lung = test system: NCI-H23 lung
T-47D breast = test system: T-47D breast
KM12 colon = test system: KM12 colon
OVCAR-5 ovarian = test system: OVCAR-5 ovarian
NCI-H226 lung = test system: NCI-H226 lung
OVCAR-4 ovarian = test system: OVCAR-4 ovarian
MDA-N = test system: MDA-N
SW-620 colon = test system: SW-620 colon
HT29 colon = test system: HT29 colon
SK-MEL-5 melanoma = test system: SK-MEL-5 melanoma
HCC-2998 colon = test system: HCC-2998 colon
SF-539 CNS = test system: SF-539 CNS
HL-60(TB) leukemia = test system: HL-60(TB) leukemia
M19-MEL melanoma = test system: M19-MEL melanoma
DMS 114 small cell lung = test system: DMS 114 small cell lung

O=[N+]([O-])c1cccc2nc3ccccc3c(NCCN(CCO)CCO)c12
TGI (TK-10 renal): 138 nM
TGI (HS 578T breast): 30.8 nM
GI50 (UO-31 renal): 257 nM
TGI (XF 498 CNS): 24 nM
GI50 (MOLT-4 leukemia): 4.13 nM
TGI (MOLT-4 leukemia): 90.3 nM
TGI (A498 renal): 11.6 nM
TGI (HCT-116 colon): 31.1 nM
TGI (SN12C renal): 28.7 nM and 85.9 nM
TGI (NCI-H522 lung): 3.89 nM
TGI (OVCAR-3 ovarian): 14.4 nM
TGI (OVCAR-8 ovarian): 23.1 nM and 16.6 nM
TGI (NCI-H460 lung): 8.91 nM
TGI (MDA-MB-435): 2.83 nM
TGI (RXF-631 renal): 108 nM and 40.5 nM
TGI (BT-549 breast): 8.75 nM
TGI (RPMI-8226 leukemia): 97.1 nM
TGI (DU-145 prostate): 10.8 nM
TGI (SR leukemia): 110 nM
TGI (MALME-3M melanoma): 6.49 nM
TGI (RXF 393 renal): 4.47 nM
TGI (SK-MEL-2 melanoma): 10.2 nM
TGI (CAKI-1 renal): 23.2 nM and 62.2 nM
TGI (HOP-92 NSCLC): 17.1 nM
TGI (786-0 renal): 29.6 nM
TGI (SK-OV-3 ovarian): 177 nM
TGI (HCT-15 colon): 66.8 nM and 169 nM
GI50 (SK-MEL-28 melanoma): 10.3 nM
TGI (SK-MEL-28 melanoma): 27 nM and 23 nM
TGI (SNB-19 CNS): 108 nM and 346 nM
TGI (M14 melanoma): 8.21 nM
TGI (SF-268 CNS): 29.6 nM and 113 nM
TGI (A549 NSCLC): 33.4 nM
TGI (DLD-1 colon): 65.8 nM and 580 nM
TGI (SF-295 CNS): 54.9 nM and 17 nM
TGI (COLO 205 colon): 14.6 nM
TGI (MDA-MB-231 breast): 9.7 nM
TGI (SNB-78 CNS): 194 nM and 52.3 nM
TGI (SNB-75 CNS): 28.6 nM
TGI (ACHN renal): 20.5 nM and 34.5 nM
TGI (HOP-62 NSCLC): 9.91 nM
TGI (LXFL 529 NSCLC): 108 nM and 24.3 nM
TGI (UACC-62 melanoma): 11.4 nM
TGI (U251 CNS): 26.1 nM
GI50 (EKVX NSCLC): 12.8 nM
TGI (EKVX NSCLC): 41.1 nM and 52.4 nM
GI50 (UACC-257 melanoma): 49.8 nM
TGI (UACC-257 melanoma): 224 nM and 23.8 nM
TGI (DMS 273 small cell lung): 42.2 nM and 24.6 nM
GI50 (LOX IMVI melanoma): 11.8 nM
TGI (LOX IMVI melanoma): 31.9 nM and 33.1 nM
GI50 (K-562 leukemia): 4.76 nM
TGI (K-562 leukemia): 28.3 nM
TGI (PC-3 prostate): 10.9 nM
TGI (MCF7 breast): 32.2 nM
TGI (KM20L2 colon): 69 nM and 29 nM
TGI (IGROV1 ovarian): 26.5 nM
GI50 (CCRF-CEM leukemia): 15.6 nM
TGI (CCRF-CEM leukemia): 109 nM
TGI (NCI-H23 lung): 5.83 nM
TGI (T-47D breast): 114 nM
TGI (KM12 colon): 20.6 nM
TGI (OVCAR-5 ovarian): 23.4 nM
TGI (NCI-H226 lung): 4.1 nM and 19.3 nM
TGI (OVCAR-4 ovarian): 14.7 nM and 81.2 nM
TGI (MDA-N): 2.9 nM
TGI (SW-620 colon): 23.5 nM and 111 nM
TGI (HT29 colon): 20.2 nM
TGI (SK-MEL-5 melanoma): 5.74 nM and 13 nM
TGI (HCC-2998 colon): 6.74 nM
GI50 (SF-539 CNS): 13.7 nM
TGI (SF-539 CNS): 26.6 nM and 59.4 nM

C=CCCCCC1CCC2CCC(CCCC)N12 (centres undefined)
outcome (TK-10 renal): inactive
outcome (UO-31 renal): inactive
outcome (XF 498 CNS): inactive
outcome (MOLT-4 leukemia): inactive
outcome (HCT-116 colon): inactive
outcome (SN12C renal): inactive
outcome (NCI-H522 lung): inactive
outcome (OVCAR-3 ovarian): inactive
outcome (OVCAR-8 ovarian): inactive
outcome (NCI-H460 lung): inactive
outcome (RXF-631 renal): inactive
outcome (RPMI-8226 leukemia): inactive
outcome (MALME-3M melanoma): inactive
outcome (RXF 393 renal): inactive
outcome (SK-MEL-2 melanoma): inactive
outcome (HOP-92 NSCLC): inactive
outcome (786-0 renal): inactive
outcome (SK-OV-3 ovarian): inactive
outcome (SK-MEL-28 melanoma): inactive
outcome (SNB-19 CNS): inactive
outcome (M14 melanoma): inactive
outcome (SF-268 CNS): inactive
outcome (A549 NSCLC): inactive
outcome (DLD-1 colon): inactive
outcome (SF-295 CNS): inactive
outcome (COLO 205 colon): inactive
outcome (SNB-78 CNS): inactive
outcome (SNB-75 CNS): inactive
outcome (ACHN renal): inactive
outcome (HOP-62 NSCLC): inactive
outcome (LXFL 529 NSCLC): inactive
outcome (HL-60(TB) leukemia): inactive
outcome (UACC-62 melanoma): inactive
outcome (U251 CNS): inactive
outcome (UACC-257 melanoma): inactive
outcome (DMS 273 small cell lung): inactive
outcome (LOX IMVI melanoma): inactive
outcome (K-562 leukemia): inactive
outcome (M19-MEL melanoma): inactive
outcome (DMS 114 small cell lung): inactive
outcome (KM20L2 colon): inactive
outcome (IGROV1 ovarian): inactive
outcome (CCRF-CEM leukemia): inactive
outcome (NCI-H23 lung): inactive
outcome (KM12 colon): inactive
outcome (OVCAR-5 ovarian): inactive
outcome (NCI-H226 lung): inactive
outcome (OVCAR-4 ovarian): inactive
outcome (SW-620 colon): inactive
outcome (SK-MEL-5 melanoma): inactive
outcome (HCC-2998 colon): inactive
outcome (SF-539 CNS): inactive
